The source of these data is patent publication US5681925A, “Trifunctional antithrombin and antiplatelet peptides” (priority 1995, dated 1997).

In data set [1] the test system is human platelets.
Method: (§1) Human platelet-rich plasma (PRP) is prepared by centrifugation at 200 g-forces for 10 min. at room temperature. Platelet poor plasma (PPP) is prepared by centrifugation at 2,000 g-forces for 10 min. PRP is exposed only to plastic laboratory ware. All experiments are completed within 3 hours of blood collection. Platelet aggregation is measured photometrically using a dual channel aggregometer (Chrono-log Corp., Haverstown, Pa. 19083). One hundred percent light transmission is defined with autologus PPP. Percent maximal change in light transmission is determined from PRP following addition of ADP (1 μM) or thrombin. Thrombin (0.2-2.0 Units/ml)-induced platelet aggregation is concentration dependent and the half-maximal concentration is used for inhibition studies. Peptide 2 (SEQ ID NO: 2) is incubated with PRP (0.45 ml) for 30 seconds prior to the addition of ADP or thrombin. Aggregation is measured in a total volume of 0.5 ml. Inhibitory responses are expressed as percent inhibition when compared to a control value. The concentration resulting in 50% inhibition of aggregation. (IC50) is calculated by simple linear regression.
(§2) Human platelet-rich plasma (PRP) is prepared by centrifugation at 200 g-forces for 10 min. room temperature. Platelet poor plasma (PPP) is prepared by centrifugation at 2,000 g-forces for 10 min. PRP is exposed only to plastic laboratory ware. All experiments are completed within 3 hours of blood collection. Platelet aggregation is measured photometrically using a Chrono-log dual channel aggregometer (Chrono-log Corp., Haverstown, Pa. 19083). One hundred percent light transmission is defined with autologus PPP. Percent maximal change in light transmission is determined from PRP following addition of ADP (1 μM) or thrombin. Thrombin (0.2-2.0 Units/ml)-induced platelet aggregation is concentration dependent and the half-maximal concentration is used for inhibition studies. Peptide 1 (SEQ ID NO: 1) is incubated with PRP (0.45 ml) for 30 seconds prior to the addition of ADP or thrombin. Aggregation is measured in a total volume of 0.5 ml. Inhibitory responses are expressed as percent inhibition when compared to a control value. The concentration resulting in 50% inhibition of aggregation (IC50) is calculated by simple linear regression.
For data set [2], the system named is human platelets. The source holds these as a separate data set.
Method: as §1, §2
Another data set relates to human plasma. As to the kind of experiment: Activated partial thromboplastin time (aPTT) in human plasma. The format is biochemical.
Another data set has as its target T1, bovine thrombin (Bos taurus, UniProt P00735).
T1 construct: purchased Sigma Diagnostics, St. Louis, Mo
As to the kind of experiment: Thrombin clotting time in human plasma. Type of data set: biochemical.

For data set [3], the system named is human whole blood platelets. Conditions: read-out: IC50 whole blood platelet aggregation, ADP (0.5 μM) and thrombin (0.025 U/ml).
Method: (§3) Platelet aggregation in blood is performed in saline diluted (1:2) citrated blood using a whole blood aggregomenter (Chrono-log, model 540-VS). Aliquots of diluted blood are placed in plastic cuvettes and incubated at 37° C. for 15 min. Addition of ADP (2 μM) or thrombin (0.4 U/ml) is used to induce aggregation and the change in electrical impedance is registered on a strip chart recorder. Aggregation is measured in a total blood volume of 1.0 ml. Inhibitory responses are expressed as percent inhibition when compared to a control value. The concentration resulting in 50% inhibition of aggregation (IC50) is calculated by simple linear regression.
Data set [4] deals with rat whole blood platelets. The settings on record: read-out: IC50 whole blood platelet aggregation, ADP (0.5 μM) and thrombin (0.025 U/ml).
Method: as §3
For data set [5] the following is noted: dog, in vivo.
Method: (§4) Dogs are anesthetized with sodium pentobarbital (30 mg/kg, i.v.). The femoral artery and both femoral veins are isolated and cannulated for the recording of blood pressure (Gould P23ID, Gould Inc., Medical Products Division, Oxnard, Calif. 93030), blood sampling, and drug administration. Limb leads are placed subcutaneously for monitoring of lead II ECG. Blood pressure and ECG measurements are recorded (Gould 440 recorder, Gould Inc., Instrument Systems Division, Cleveland, Ohio 44114).
Template bleeding times are performed on the median surface of the left leg after the hair has been removed (Nair, Carter-Wallace, Inc., New York, N.Y. 10105) using a Surgicutt® bleeding time device (International Technidyne Corp., Edison, N.J. 08820). Template bleeding times are determined 60 and 30 min before administration of the drug, 15, 30, 60, 120, 180 and 240 min after drug administration.
Whole blood cell counts and analysis of the hemoglobin content are determined on a 140 μL blood sample anticoagulated with EDTA processed with a hematology analyzer (Technicon El, Miles Technicon, Tarrytown, N.Y. 10591). Samples were taken at 60 and 30 min before administration of the drug, 15, 30, 60, 120, 180 and 240 min after drug administration.
Another data set has as its system dog platelets. As to the kind of experiment: Intravenous infusion in anesthetized dogs: platelet aggregation. The settings on record: after 1 nmol/kg/min infusion is stopped.
A further data set relates to thrombin. As to the kind of experiment: Intravenous infusion in anesthetized dogs: thrombin time and aPTT.

Where two headings read alike, the source gives them in different places. Bridge positions count the residues as written; N and C are the ends. Square brackets hold non-standard residues; d marks the D form. Ends that are not written are not given here. Peptide text beside a SMILES is read from it. Cha = N[C@@H](CC1CCCCC1)C(=O)O; Nle = CCCC[C@H](N)C(=O)O

Method for bovine thrombin: Activated partial thromboplastin time (aPTT) determinations are carried out using the reagents and methods of Dade Diagnostics, Inc. (Aguada, Puerto Rico 00602). Thrombin clotting times are determined by incubating 0.1 ml of rat plasma at 37° C. with 0.1 ml of 0.1M Tris buffer, pH 7.5 for 30 seconds. Coagulation is started with 0.1 ml of bovine thrombin (Sigma Diagnostics, St. Louis, Mo. 63178) solution (12 NIH units/ml). All clotting times are measured semiautomatically using a MLA-Electra 750 automatic coagualation timer, MLA, Inc. (Pleasantville, N.Y. 10570). The concentration required for doubling the clotting time (ID2) is calculated using simple linear regression.
Activated partial thromboplastin time (aPTT) determinations are carried out using the reagents and methods of Dade Diagnostics, Inc. (Aguada, Puerto Rico 0602). Thrombin clotting times are determined by incubating 0.1 ml of rat plasma at 37° C. with 0.1 ml of 0.1M Tris buffer, pH 7.5 for 30 seconds. Coagulation is started with 0.1 ml of bovine thrombin (Sigma Diagnostics, St. Louis, Mo. 63178) solution (12 NIH units/ml). All clotting times are measured semiautomatically using a MLA-Electra 750 automatic coagualation timer, MLA, Inc. (Pleasantville, N.Y. 10570). The concentration required for doubling the clotting time (ID2) is calculated using simple linear regression.
Method for dog platelets: as §4, §3

Turning to `CN[C@H](Cc1ccccc1)C(=O)N1CCC[C@H]1C(=O)N[C@@H](CCCNC(=N)N)C(=O)O` [Peptide 2d, (CH3)fPR, reference compound], the IC50 with human platelets [1] (3 h) is more than 1000 µM; in the data set with human platelets [2] (3 h) it was 0.2 µM.
In the case of “fPRPGCGRGD(Nle)PCGDYEPIPEEAYD [Peptide 4, reference compound]”, the “anticoagulant activity (in words)” value in the data set on human plasma (aPTT and thrombin time) was “less anticoagulant activity than Peptide 2”. Also, the “ID2 aPTT” value in the data set on human plasma (concentration doubling clotting time) is listed as 115 ± 24 nM. Besides, the “ID2 Thrombin Time” value with bovine thrombin (human plasma, concentration doubling clotting time) was found to be 14 ± 3 nM. For the same molecule, in the data set with human platelets [1] (human platelets), the “inhibition of ADP-induced platelet aggregation (in words)” value is reported as “approximately equivalent to Peptide 1”. In addition, the IC50 in the data set with human platelets [1] (read-out: IC50 inhibition of platelet aggregation, ADP, human PRP, ADP-induced) came to 35.9 ± 0.5 µM; with human platelets [2] (read-out: IC50 Thrombin, human PRP, thrombin-induced), 0.408 ± 0.18 µM. Besides, the “fold less active than Peptide 1, thrombin-induced platelet aggregation” value with human platelets [2] (human platelets) is on record as “approximately 1,000 fold”.
`CC[C@H](C)[C@H](NC(=O)[C@@H]1CCCN1C(=O)[C@H](CCC(=O)O)NC(=O)[C@H](Cc1ccc(O)cc1)NC(=O)[C@H](CC(=O)O)NC(=O)CNC(=O)[C@H]1CSSC[C@@H](NC(=O)CNC(=O)[C@@H]2CCCN2C(=O)[C@H](CCCNC(=N)N)NC(=O)[C@@H]2CCCN2C(=O)[C@H](N)Cc2ccccc2)C(=O)NCC(=O)N[C@@H](CCCNC(=N)N)C(=O)NCC(=O)N[C@@H](CC(=O)O)C(=O)N[C@@H](Cc2ccccc2)C(=O)N2CCC[C@H]2C(=O)N1)C(=O)N1CCC[C@H]1C(=O)N[C@@H](CCC(=O)O)C(=O)N[C@@H](CCC(=O)O)C(=O)N[C@@H](C)C(=O)N[C@@H](CC1CCCCC1)C(=O)N[C@H](CCC(=O)O)C(=O)O` [Peptide 2, fPRPGcGRGDFPcGDYEPIPEEA(Cha)e] (H-[dF]PRPG[dC]GRGDFP[dC]GDYEPIPEEA[Cha][dE]-OH; disulfide 6-13): the IC50 in the data set with human platelets [1] (3 h) is approximately 19 µM; with human platelets [2] (3 h) it was 0.06 ± 0.026 µM.
As to “fPRPGcvRGD(Nle)PcGDYEPIPEEA(Cha)e ([dF]PRPG[dC][dV]RGD[Nle]P[dC]GDYEPIPEEA[Cha][dE]; disulfide 6-13 (inferred)) [Peptide 11]”, the “Relative activity vs Peptide 1: Coagulation aPTT” value in the data set with human plasma (ratio to Peptide 1 (ID2 27.9 nM), 1 = as active as Peptide 1) was 0.37. In the data set with bovine thrombin (ratio to Peptide 1 (ID2 15 nM), 1 = as active as Peptide 1), the “Relative activity vs Peptide 1: Coagulation Thrombin Time” value worked out at 0.86. Also, the “Relative activity vs Peptide 1: Aggregation Thrombin” value with human platelets [2] (ratio to Peptide 1 (IC50 5.8 nM), 1 = as active as Peptide 1) amounted to 0.13.
For `CCCC[C@@H]1NC(=O)[C@H](CC(=O)O)NC(=O)CNC(=O)[C@H](CCCNC(=N)N)NC(=O)CNC(=O)[C@H](NC(=O)CNC(=O)[C@@H]2CCCN2C(=O)[C@H](CCCNC(=N)N)NC(=O)[C@@H]2CCCN2C(=O)[C@H](N)Cc2ccccc2)CSSC[C@H](C(=O)NCC(=O)N[C@@H](CC(=O)O)C(=O)N[C@@H](Cc2ccc(O)cc2)C(=O)N[C@@H](CCC(=O)O)C(=O)N2CCC[C@H]2C(=O)N[C@H](C(=O)N2CCC[C@H]2C(=O)N[C@@H](CCC(=O)O)C(=O)N[C@@H](CCC(=O)O)C(=O)N[C@@H](C)C(=O)N[C@@H](CC2CCCCC2)C(=O)N[C@H](CCC(=O)O)C(=O)O)[C@@H](C)CC)NC(=O)[C@@H]2CCCN2C1=O` [Peptide 1, fPRPGcGRGD(Nle)PcGDYEPIPEEA(Cha)e] (H-[dF]PRPG[dC]GRGD[Nle]P[dC]GDYEPIPEEA[Cha][dE]-OH; disulfide 6-13), the figures for the IC50 (with human platelets [1] (3 h); in data set [3]; in data set [4]) were 11.4 µM, 0.0029 µM and 0.0425 µM, respectively. Moreover, the “time after infusion ends at which blood pressure and heart rate return to baseline control values” in data set [5] amounted to 2 h. For the same molecule, in the data set on dog platelets, the “pharmacodynamic t1/2, restoration of platelet activity” value stood at 12.8 ± 1.1 min. Besides, the figures for the “pharmacodynamic t1/2, restoration of thrombin activity” value in the data set with thrombin (after 1 hr infusion of 1 nmol/kg/min) and in the data set with thrombin (after 1 hr infusion of 5 nmol/kg/min) were 17 ± 0.1 min and 26 ± 3.2 min, respectively.
